# Data taken from article PMC10783051 (Microbiology Spectrum, 2023).
# Legend:
# tobacco cells = conditions: cited from earlier work
# Description: Additionally, CLPs are key multifunctional BSMs whose biocontrol-associated activities often involve membrane perturbation and pore formation ([16]). This CLP-membrane interaction is enabled by the peculiar amphiphilic three-dimensional structures of those CLPs ([17], [18]). However, since the degradation alters their structures, it is likely associated with a loss of function. […] Likewise, linearization of su ...
# [1] = system: Streptomyces venezuelae ATCC 10712; experiment: In planta co-inoculation on tomato roots, UPLC-MS of rhizosphere extracts; conditions: tomato roots on Hoagland agar, 7 days at 22°C, UPLC-MS of agar near the roots, four biological replicates
# Protocol: For the in planta studies, tomato seeds (Solanum lycopersicum var. Moneymaker) were sterilized following the protocol described by ([26]). Briefly, tomato seeds were primarily sterilized in 70% ethanol (vol/vol) by gently shaking for 2 min. Further, the ethanol was removed and the seeds were added to 50 mL of the sterilization solution [4.5 mL of bleach containing 9.5% (vol/vol) of active chlorine, 0.01 g of Tween 80, and 45.5 mL of sterile water] and gently shaken for 10 min. Seeds were thereafter washed 10 times with water to eliminate sterilization solution residues. […]
# All UPLC-MS analyses were performed using an Agilent 1290 Infinity II coupled with a diode array detector and a mass detector (Jet Stream ESI-Q-TOF 6530) in positive mode with the parameters set up as follows: capillary voltage of 3.5 kV, nebulizer pressure of 35 lb/in^2, drying gas of 8 L/min, drying gas temperature of 300°C, flow rate of sheath gas of 11 L/min, sheath gas temperature of 350°C, fragmentor voltage of 175 V, skimmer voltage of 65 V, and octopole radiofrequency of 750 V. Accurate mass spectra were recorded in the m/z range of 300–1,700. […]
# [2] = system: Streptomyces venezuelae ATCC 10712; experiment: Confrontation assay B. velezensis GA1 / S. venezuelae on REM plate, UPLC-MS metabolite profiling of the agar
# Protocol: Confrontation assays were performed on square Petri dishes (12 × 12 cm) with 40 mL of REM solid medium at 26°C (REM supplemented with 14 g/L of agar).
# S. venezuelae ATCC 10712 was inoculated as stripes (1 × 12 cm) in the middle of the plate with 40 µL of spore suspension (10^7 spores/mL) and spread with a cotton swab. Next, B. velezensis GA1 cells were collected from fresh precultures as described and adjusted to OD600 nm 0.1. Then, 5 µL of B. velezensis GA1 suspension was spotted at 1 cm of the Streptomyces line. Control plates were done following the same procedure without the inoculation of either Bacillus or Streptomyces. Plates were then incubated for 3 days at 26°C in the dark. Pictures of the plates were then captured using a CoolPix camera (NIKKOR ×60 wide optical zoom extra-low dispersion vibration reduction 4.3–258.0 mm 1:33 to 6.5).
# The extraction of the metabolites from the agar was performed as follows. For the confrontation experiment, we precisely sampled the area of agar (2 × 1 cm) near the colony of Bacillus or Streptomyces (the confrontation zone is 1 cm wide) with standardized plugs. For the in planta, we sampled the agar area (1 × 1 cm) near the tomato roots. In both cases, the agar samples were transferred to Eppendorf tubes and placed for 24 h at −20°C. Then, the agar was thawed at room temperature and centrifuged for 10 min at 13,000 rpm. The supernatants were then collected and filtered (0.22-µm pore size filters) before UPLC-MS analysis.
# All UPLC-MS analyses were performed using an Agilent 1290 Infinity II coupled with a diode array detector and a mass detector (Jet Stream ESI-Q-TOF 6530) in positive mode with the parameters set up as follows: capillary voltage of 3.5 kV, nebulizer pressure of 35 lb/in^2, drying gas of 8 L/min, drying gas temperature of 300°C, flow rate of sheath gas of 11 L/min, sheath gas temperature of 350°C, fragmentor voltage of 175 V, skimmer voltage of 65 V, and octopole radiofrequency of 750 V. Accurate mass spectra were recorded in the m/z range of 300–1,700. For untargeted MS/MS, we used the same MS1 parameters as described. We added MS2 untargeted acquisition mode with the parameters as follows: MS/MS range 50–1,700 m/z; MS/MS scan rate 3 spectra/s; isolation width MS/MS medium (approx. 4 AMU), Decision Engine Native; fixed collision energies of 25 and 40 V for surfactin, 50 V for iturin, and 60 V for fengycin experiments; precursor selection: three for the surfactin experiment, four for the iturin and fengycin experiments, threshold 1,500 (Abs), isotope model common, active exclusion after two spectra and release after 0.5 min, sorting the precursors by charge state then abundance (charge state preference 1). For targeted MS/MS, we used the same MS1 parameters MS/MS range of 50–1,700 m/z or 50–3,200 (when required for Pseudomonas CLPs with mass >1,700 Da), MS/MS scan rate 3 spectra/s, isolation width MS/MS narrow (approx. 1.3 amu), and fixed collision energies 20, 40, and 60V. In all experiments, a C18 Acquity UPLC ethylene bridged hybrid column (2.1 mm × 50 mm × 1.7 µm; Waters Corporation, Milford, MA, USA) was used at a flow rate of 0.6 mL/min and a temperature of 40°C. The injection volume was 20 µL, and the diode array detector scanned a wavelength spectrum between 190 and 600 nm. Unless otherwise mentioned, a gradient of acidified water (0.1% formic acid) (solvent A) and of acidified acetonitrile (0.1% formic acid) (solvent B) was used as mobile phase with a constant flow rate of 0.6 mL/min, starting at 10% B and rising to 100% B in 20 min. Solvent B was kept at 100% for 4 min before going back to the initial ratio. MassHunter Workstation (version 10.0) and ChemStation software were used for data collection and analysis. For untargeted analysis of iturin and fengycin degradation products, we used the same solvent and flow rate, starting at 10% B to 20% in 2 min, then rising to 50% B at 14 min and 100% B at 25 min, followed by 100% B and 5 at 10% B at 6 min.
# Streptomyces = conditions: cited from earlier work
# Description: As soils are carbon-rich and nitrogen-poor environments, exogenous CLP degradation may thus represent a foraging strategy for Streptomyces to access alternative sources of nutriments directly emanating from diverse microbial competitors. We assume that, in this ...
substance,measurement,setting,value
surfactin,effect of linearization on the potential to stimulate immune-related defense responses,tobacco cells,almost full loss
same,linear forms in rhizosphere extracts upon co-inoculation of Bv with Sv,[1],high proportion of linear
same,abundance of the CLP in the confrontation zone compared with monocultures,[2],decrease in the abundance
same,shorter CLP fragment detected in the confrontation zone but not in Bv monoculture,[2],loss of the fatty acid from the linear form
same,effect on aerial mycelium formation of Streptomyces,Streptomyces,inhibitory effect
